Test results from patent US7592308B2, “F3W variants of the lantibiotic mersacidin and its use” (priority 2004, dated 2009).
Values after ≈ are worked out from the molar mass of the structure shown. Where two headings read alike, the source gives them in different places. Square brackets hold non-standard residues; d marks the D form. Ends that are not written are not given here. Dha = C=C(N)C(=O)O

Experiments:
M. luteus 4698 = type: cell-based, Micrococcus luteus
Description: (§1) A selection of the variants produced in Example 1 above were tested further for activity against a range of bacteria. Minimum inhibitory concentrations (MICs) for all organisms with the exception of Streptococcus pneumoniae were determined by two-fold serial antibiotic dilutions in Mueller-Hinton broth (MHB) supplemented with 50 μg/ml calcium as calcium chloride dihydrate. Minimum inhibitory concentrations (MICs) for S. pneumoniae were determined by two-fold serial antibiotic dilutions in Brain Heart Infusion (BHI) broth supplemented with 50 μg/ml calcium as calcium chloride dihydrate. Antimicrobial agent stock solutions were prepared and stored according to NCCLS standard M7-A6.
(§2) Actively growing broth cultures were diluted to contain […] by adjusting to an absorbance of 0.2-0.3 at 600 nm, equivalent to the McFarland 0.5 standard. They were then diluted a further 1:100 in broth. The assays were performed in duplicate in sterile 96-well microtitre plates in a total volume of 200 μl (160 μl broth, 20 μl antibiotic, 20 μl inoculum) in a concentration range from 64 μg/ml to 0.06 μg/ml. The 12th well of the microtitre plate contained no antimicrobial agent. Vancomycin was used as a reference antibiotic for quality control. Plates were incubated aerobically, shaking, for 18-20 hours at 37° C. with the MIC defined as the lowest concentration of drug that produced no visible growth.

S. pyogenes 13608 = type: cell-based, Streptococcus pyogenes
Description: (§3) MIC tests were performed with some of the variants of Example 2 on a range of other organisms. The results are shown in Tables 9 and 10 (figures in μg/ml): […]

S. pyogenes 16205 = type: cell-based, Streptococcus pyogenes
Description: as §3

S. aureus 1012-13 MRSA = type: cell-based, Staphylococcus aureus
Description: as §3

S. aureus COL MRSA = type: cell-based, Staphylococcus aureus
Description: as §3

S. aureus CS = type: cell-based, Staphylococcus aureus
Description: as §3

S. aureus SG511 = type: cell-based, Staphylococcus aureus
Description: as §3

E. faecium 4147 VRE = type: cell-based, Enterococcus faecium
Description: as §3

E. faecium 4147-1 = type: cell-based, Enterococcus faecium
Description: as §3

[1] = tested on: Micrococcus luteus ATCC4698; test: Bioassay of culture supernatant against M. luteus; type: cell-based; details: aqueous phase of chloroform-extracted culture supernatant
Description: The cultures were assayed for production of mersacidin by HPLC and bioassay against Micrococcus luteus ATCC4698. Samples of production cultures (1 ml) were centrifuged at 14000 rpm for 10 minutes. Supernatants were decanted and used undiluted for HPLC and bioassay.
For bioassays, M.luteus was inoculated from frozen stock into 10 ml half-strength Muller-Hinton broth in a 50 ml conical flask, and incubated at 30C with shaking at 250 rpm for approximately 7 hours, 0.3 ml of this culture was used to inoculate 300 ml of Muller-Hinton agar which was poured into a bioassay plate. Wells (6 mm diameter) were made with a cork-borer. Samples of 50 μl of supernatants were added to these wells. The concentration of mersacidin in the samples was calculated by comparing the diameter of inhibition zones of samples against a range of concentrations of a pure mersacidin standard.
Chloramphenicol resistant colonies were selected and grown in 3 ml Tryptic Soy Broth at 30C for 24 hours, 250 rpm and 0.3 ml of these cultures were used to inoculate 7 ml of 2×BPM+300 mM glucose+chloramphenicol (20 mg/l). After five days of incubation at 30C and 250 rpm, a 1 ml sample was collected and centrifuged at 13000 rpm for 10 min, the supernatant was removed, extracted with 1 volume of chloroform and the aqueous phase used for bioassay and HPLC-MS analysis (see accompanying disclosure for method). […] These masses are consistent with production of the expected mature lantibiotic products.
The ligation mixture was used to transform E. coli DH10B (Invitrogen). Ampicillin resistant colonies were selected, grown in LB+ampicillin (100 mg/l) and plasmids were isolated and characterised by sequence analysis. Plasmid encoding the expected mutant (pNB2024) was used to transform E. coli ET12567 and the plasmid obtained from this strains was used to transform Bacillus sp. HIL Y-85,54728 E17A. Chloramphenicol resistant colonies were selected and grown in 3 ml Tryptic Soy Broth at 30C for 24 hours, 250 rpm and 0.3 ml of these cultures were used to inoculate 7 ml of 2×BPM+300 mM glucose+chloramphenicol (20 mg/l). […]

E. faecalis 29212 = test: MIC, two-fold serial dilution in broth; type: cell-based, Enterococcus faecalis; details: Table 8A; MHB + 50 μg/ml calcium; duplicate
Description: as §1, §2

S. aureus COL = type: cell-based, Staphylococcus aureus
Description: as §3

S. aureus LT 1012-13 = test: MIC test, further organisms; type: cell-based, Staphylococcus aureus; details: Table 10; duplicate
Description: as §3

S. aureus Mu50 = test: MIC test, further organisms; type: cell-based, Staphylococcus aureus; details: Table 10; duplicate
Description: as §3

E. faecium BM4147 = test: MIC test, further organisms; type: cell-based, Enterococcus faecium; details: Table 10; duplicate
Description: as §3

E. faecium 19579 = test: MIC, two-fold serial dilution in broth; type: cell-based, Enterococcus faecium; details: Table 8A; MHB + 50 μg/ml calcium; duplicate
Description: as §1, §2

E. faecium 7131121 = test: MIC, two-fold serial dilution in broth; type: cell-based, Enterococcus faecium; details: Table 8A; MHB + 50 μg/ml calcium; duplicate
Description: as §1, §2

S. pneumoniae R6 = type: cell-based, Streptococcus pneumoniae; details: Table 8B; BHI broth + 50 μg/ml calcium; duplicate
Description: as §1, §2

S. aureus SH1000 = type: cell-based, Staphylococcus aureus; details: Table 8A; MHB + 50 μg/ml calcium; duplicate
Description: as §1, §2

S. aureus R33 = type: cell-based, Staphylococcus aureus; details: Table 8A; MHB + 50 μg/ml calcium; duplicate
Description: as §1, §2

S. epidermidis 11047 = type: cell-based, Staphylococcus epidermidis; details: Table 8B; MHB + 50 μg/ml calcium; duplicate
Description: as §1, §2

[2] = Table 8B, MHB + 50 μg/ml calcium, duplicate

Compound	antibiotic activity in bioassay against M. luteus [1]	MIC E. faecalis 29212 (E. faecalis 29212)	MIC S. aureus LT 1012-13 (S. aureus LT 1012-13)	MIC S. aureus Mu50 (S. aureus Mu50)	MIC E. faecium BM4147 (E. faecium BM4147)	MIC E. faecium 19579 (E. faecium 19579)	MIC E. faecium 7131121 (E. faecium 7131121)	MIC S. pneumoniae R6 (S. pneumoniae R6)	MIC S. aureus COL (S. aureus COL; Table 10, duplicate)	MIC S. aureus SH1000 (S. aureus SH1000)	further results
C=C1NC(=O)C2NC(=O)[C@H](CC(C)C)NC(=O)C(NC(=O)[C@@H]3CSC(C)C(NC(=O)[C@H](Cc4c[nH]c5ccccc45)NC(=O)C4NC(=O)[C@@H](N)CSC4C)C(=O)N[C@@H](CC(C)C)C(=O)N4CCC[C@H]4C(=O)NCC(=O)NCC(=O)NCC(=O)NCC(=O)N[C@@H](C(C)C)C(=O)N3)C(C)SC[C@H](NC(=O)[C@H](CCC(=O)O)NC1=O)C(=O)N[C@@H]([C@@H](C)CC)C(=O)NC=CSC2C (some centres unmarked) [F3W, mersacidin F3W]	antibiotic activity comparable to mersacidin										MIC M. luteus 4698 (M. luteus 4698; 4698): 0.5 µg/mL (≈ 0.268 µM); MIC S. pyogenes 13608 (S. pyogenes 13608): 0.125 µg/mL (≈ 0.067 µM); MIC S. pyogenes 16205 (S. pyogenes 16205): 0.125 µg/mL (≈ 0.067 µM); MIC S. aureus 1012-13 MRSA (S. aureus 1012-13 MRSA): 4 µg/mL (≈ 2.14 µM); MIC S. aureus COL MRSA (S. aureus COL MRSA): 16 µg/mL (≈ 8.58 µM); MIC S. aureus CS (S. aureus CS): 4 µg/mL (≈ 2.14 µM); MIC S. aureus SG511 (S. aureus SG511): 2 µg/mL (≈ 1.07 µM); MIC E. faecium 4147 VRE (E. faecium 4147 VRE; 4147 VRE): 32 µg/mL (≈ 17.2 µM); MIC E. faecium 4147-1 (E. faecium 4147-1; Table 9, 16 h): 32-16 h, μg/ml; MIC E. faecium 4147-1 (E. faecium 4147-1; Table 9, 23 h): 64-23 h μg/ml
C=C1NC(=O)C2NC(=O)[C@H](CC(C)C)NC(=O)C(NC(=O)[C@@H]3CSC(C)C(NC(=O)[C@H](Cc4ccccc4)NC(=O)C4NC(=O)[C@@H](N)CSC4C)C(=O)N[C@@H](CC(C)C)C(=O)N4CCC[C@H]4C(=O)NCC(=O)N[C@@H](C)C(=O)NCC(=O)NCC(=O)N[C@@H](C(C)C)C(=O)N3)C(C)SC[C@H](NC(=O)[C@H](CCC(=O)O)NC1=O)C(=O)N[C@@H]([C@@H](C)CC)C(=O)NC=CSC2C (some centres unmarked) [G8A, mersacidin G8A]	has antibiotic activity										MIC M. luteus 4698 (M. luteus 4698; 4698): 4 µg/mL (≈ 2.17 µM); MIC S. pyogenes 13608 (S. pyogenes 13608): 1 µg/mL (≈ 0.543 µM); MIC S. pyogenes 16205 (S. pyogenes 16205): 1 µg/mL (≈ 0.543 µM); MIC S. aureus 1012-13 MRSA (S. aureus 1012-13 MRSA): 16 µg/mL (≈ 8.69 µM); MIC S. aureus COL MRSA (S. aureus COL MRSA): 32 µg/mL (≈ 17.4 µM); MIC S. aureus CS (S. aureus CS): 8 µg/mL (≈ 4.35 µM); MIC S. aureus SG511 (S. aureus SG511): 8 µg/mL (≈ 4.35 µM); MIC E. faecium 4147 VRE (E. faecium 4147 VRE; Table 9, 16 h): 64-16 h, μg/ml; MIC E. faecium 4147 VRE (E. faecium 4147 VRE; Table 9, 24 h): 128-24 h μg/ml; MIC E. faecium 4147-1 (E. faecium 4147-1; 4147-1): 128 µg/mL (≈ 69.6 µM)
C=C1NC(=O)C2NC(=O)[C@H](CC(C)C)NC(=O)C(NC(=O)[C@@H]3CSC(C)C(NC(=O)[C@H](Cc4ccccc4)NC(=O)C4NC(=O)[C@@H](N)CSC4C)C(=O)N[C@@H](CC(C)C)C(=O)N4CCC[C@H]4C(=O)NCC(=O)NCC(=O)N[C@@H](C)C(=O)NCC(=O)N[C@@H](C(C)C)C(=O)N3)C(C)SC[C@H](NC(=O)[C@H](CCC(=O)O)NC1=O)C(=O)N[C@@H]([C@@H](C)CC)C(=O)NC=CSC2C (some centres unmarked) [G9A]		>64, >64 μg/ml	>64, >64 μg/ml	>64, >64 μg/ml	>64, >64 μg/ml						MIC M. luteus 4698 (M. luteus 4698; [2]): <4, <4 μg/ml; MIC S. aureus COL (S. aureus COL; COL): 64, >64 μg/ml
C=C1NC(=O)C2NC(=O)[C@H](CC(C)C)NC(=O)C(NC(=O)[C@@H]3CSC(C)C(NC(=O)[C@H](Cc4ccccc4)NC(=O)C4NC(=O)[C@@H](N)CSC4C)C(=O)N[C@@H](CC(C)C)C(=O)N[C@@H](Cc4c[nH]cn4)C(=O)NCC(=O)NCC(=O)NCC(=O)NCC(=O)N[C@@H](C(C)C)C(=O)N3)C(C)SC[C@H](NC(=O)[C@H](CCC(=O)O)NC1=O)C(=O)N[C@@H]([C@@H](C)CC)C(=O)NC=CSC2C (some centres unmarked) [P6H]		>64, >64 μg/ml	>64, >64 μg/ml	>64, >64 μg/ml	>64, >64 μg/ml	>64, >64 μg/ml	>64, >64 μg/ml	>64, 64 μg/ml	>64, >64 μg/ml		
G8N: mersacidin variant (CTFTLPGNGGVCTLT[Dha]ECIC; thioether (positions not given here); not fully specified; UniProt P43683 49-68, looked up, variant G8N)		>64, >64 μg/ml	>64, >64 μg/ml	>64, >64 μg/ml	>64, >64 μg/ml	>64, >64 μg/ml		>64, >64 μg/ml	>64, >64 μg/ml	>64, >64 μg/ml	
G8V: mersacidin variant, inactive in bioassay (CTFTLPGVGGVCTLT[Dha]ECIC; thioether (positions not given here); not fully specified; UniProt P43683 49-68, looked up, variant G8V)	inactive										
G9H: mersacidin variant (CTFTLPGGHGVCTLT[Dha]ECIC; thioether (positions not given here); not fully specified; UniProt P43683 49-68, looked up, variant G9H)		>64, >64 μg/ml	>64, >64 μg/ml	>64, >64 μg/ml	>64, >64 μg/ml				>64, >64 μg/ml		MIC M. luteus 4698 (M. luteus 4698; [2]): <4, <4 μg/ml
G9R: mersacidin variant (CTFTLPGGRGVCTLT[Dha]ECIC; thioether (positions not given here); not fully specified; UniProt P43683 49-68, looked up, variant G9R)		>64, >64 μg/ml				>64, >64 μg/ml	>64, >64 μg/ml	>64, >64 μg/ml		>64, >64 μg/ml	MIC S. aureus R33 (S. aureus R33): >64, >64 μg/ml; MIC S. epidermidis 11047 (S. epidermidis 11047): >64, >64 μg/ml
G9S: mersacidin variant (CTFTLPGGSGVCTLT[Dha]ECIC; thioether (positions not given here); not fully specified; UniProt P43683 49-68, looked up, variant G9S)		>64, >64 μg/ml				>64, >64 μg/ml	>64, >64 μg/ml	>64, >64 μg/ml		>64, >64 μg/ml	MIC S. aureus R33 (S. aureus R33): >64, >64 μg/ml; MIC S. epidermidis 11047 (S. epidermidis 11047): >64, >64 μg/ml
